From patent US20090226398A1, “ANTI-VIRAL COMPOUNDS, COMPOSITIONS, AND METHODS OF USE” (Genelabs Technologies, Inc., priority 2008, published 2009)

test system: HCV replication; assay: Replicon Assay (Huh-lucubineo-ET cells, luciferase readout); format: cell-based; conditions: Hepatitis C virus; ET (Huh-lucubineo-ET) HCV replicon cell line; luciferase activity 48-72 hours after compound addition; 6 dilutions
Procedure: A cell line, ET (Huh-lucubineo-ET) was used for screening of compounds of the present invention for inhibition of HCV replication. The ET cell line was stably transfected with RNA transcripts harboring a I389luc-ubi-neo/NS3-3′/ET; replicon with firefly luciferase-ubiquitin-neomycin phosphotransferase fusion protein and EMCV-IRES driven NS3-5B polyprotein containing the cell culture adaptive mutations (E1202G; T1280I; K1846T) (Krieger at al, 2001 and unpublished). The ET cells were grown in DMEM, supplemented with 10% fetal calf serum, 2 mM Glutamine, Penicillin (100 IU/mL)/Streptomycin (100 μg/mL), 1× nonessential amino acids, and 250 μg/mL G418 (“Geneticin”). They were all available through Life Technologies (Bethesda, Md.). The cells were plated at 0.5−1.0×10^4 cells/well in the 96 well plates and incubated for 24 hrs before adding the test compounds. The compounds were then added to the cells to achieve a final concentration of 5 or 50 μM. Luciferase activity was measured 48-72 hours later by adding a lysis buffer and the substrate (Catalog number Glo-lysis buffer E2661 and Bright-Glo luciferase system E2620 Promega, Madison, Wis.). Cells should not be too confluent during the assay. Percent inhibition of replication was plotted relative to no compound control. For EC50 (effective concentration at which 50% of the maximum inhibition is observed) determinations, 6 dilutions of each compound were used. Compounds were typically diluted 3 fold to span a concentration range of 250 fold. EC50 and similarly TC50 values were calculated by fitting % inhibition at each concentration to the following equation:
% inhibition=100%/[(EC50/[I])^b+1]
where b is Hill's coefficient.

Fc1ccccc1-c1nc2cnn(Cc3ccc(OC(F)(F)F)cc3)cc-2n1 [Compound 101, 2-(2-Fluoro-phenyl)-5-(4-trifluoromethoxy-benzyl)-5H-imidazo[4,5-d]pyridazine] and Fc1ccccc1-c1nc2cnn(Cc3ccc(Cl)cc3)cc-2n1 [Compound 102, 5-(4-Chloro-benzyl)-2-(2-fluoro-phenyl)-5H-imidazo[4,5-d]pyridazine] cannot be ordered by EC50: at least 50 µM for the first, at least 50 µM for the second.

Compared with Fc1cccc(-c2nc3cnn(Cc4ccc(-c5ccc(C(F)(F)F)cc5C(F)(F)F)nn4)cc-3n2)c1F [Compound 104, 5-[6-(2,4-Bis-trifluoromethyl-phenyl)-pyridazin-3-ylmethyl]-2-(2,3-difluoro-phenyl)-5H-imidazo[4,5-d]pyridazine], Fc1cccc(-c2nc3cnn(Cc4ccc(-c5ccc(C(F)(F)F)cc5C(F)(F)F)nc4)cc-3n2)c1F [Compound 130, 5-[6-(2,4-Bis-trifluoromethyl-phenyl)-pyridin-3-ylmethyl]-2-(2,3-difluoro-phenyl)-5H-imidazo[4,5-d]pyridazine] is 7.5-fold lower in EC50: 0.06 µM for the first, 0.008 µM for the second. The second is the more potent here.

First: COc1ccc(-c2ccc(Cn3cc4nc(-c5cccc(F)c5F)nc-4cn3)nn2)cc1 [Compound 105, 2-(2,3-Difluoro-phenyl)-5-[6-(4-methoxy-phenyl)-pyridazin-3-ylmethyl]-5H-imidazo[4,5-d]pyridazine]
Second: CC(C)Oc1ccc(-c2ccc(Cn3cc4nc(-c5cccc(F)c5F)nc-4cn3)nn2)cc1 [Compound 209, 2-(2,3-Difluoro-phenyl)-5-[6-(4-isopropoxy-phenyl)-pyridazin-3-ylmethyl]-5H-imidazo[4,5-d]pyridazine]
The EC50 of the first is lower: 7.4 µM for the first, at least 50 µM for the second.

First: CCCOc1ccc(-c2ccc(Cn3cc4nc(-c5cccc(F)c5F)nc-4cn3)cc2)cc1 [Compound 109, 2-(2,3-Difluoro-phenyl)-5-(4′-propoxy-biphenyl-4-ylmethyl)-5H-imidazo[4,5-d]pyridazine]
Second: CCCc1ccc(-c2ccc(Cn3cc4nc(-c5cccc(F)c5F)nc-4cn3)nn2)cc1 [Compound 220, 2-(2,3-Difluoro-phenyl)-5-[6-(4-propyl-phenyl)-pyridazin-3-ylmethyl]-5H-imidazo[4,5-d]pyridazine]
The EC50 of the first is 58-fold higher: 30 µM for the first, 0.52 µM for the second.

Compared with CCCCc1ccc(-c2ccc(Cn3cc4nc(-c5cccc(F)c5F)nc-4cn3)nn2)cc1 [Compound 115, 5-[6-(4-Butyl-phenyl)-pyridazin-3-ylmethyl]-2-(2,3-difluoro-phenyl)-5H-imidazo[4,5-d]pyridazine], CCc1ccc(-c2ccc(Cn3cc4nc(-c5cccc(F)c5F)nc-4cn3)nn2)cc1 [Compound 206, 2-(2,3-Difluoro-phenyl)-5-[6-(4-ethyl-phenyl)-pyridazin-3-ylmethyl]-5H-imidazo[4,5-d]pyridazine] is higher in EC50: 1.47 µM for the first, at least 50 µM for the second. The first is the more potent here.

Going from Fc1cccc(-c2nc3cnn(Cc4ccc(-c5ccc(C(F)(F)F)cc5)nn4)cc-3n2)c1F [Compound 116, 2-(2,3-Difluoro-phenyl)-5-[6-(4-trifluoromethyl-phenyl)-pyridazin-3-ylmethyl]-5H-imidazo[4,5-d]pyridazine] to Fc1cccc(-c2nc3cnn(Cc4ccc(-c5ccc(OC(F)(F)F)cc5)nn4)cc-3n2)c1F [Compound 119, 2-(2,3-Difluoro-phenyl)-5-[6-(4-trifluoromethoxy-phenyl)-pyridazin-3-ylmethyl]-5H-imidazo[4,5-d]pyridazine], the EC50 falls from at least 50 µM to 3.1 µM. The second is the more potent here.

Going from Fc1cccc(-c2nc3cnn(Cc4ccc(-c5ccc(C(F)(F)F)cc5C(F)(F)F)cn4)cc-3n2)c1F [Compound 129, 5-[5-(2,4-Bis-trifluoromethyl-phenyl)-pyridin-2-ylmethyl]-2-(2,3-difluoro-phenyl)-5H-imidazo[4,5-d]pyridazine] to Fc1cccc(-c2nc3cnn(Cc4ccc(-c5ccc(-c6cn[nH]c6)cc5C(F)(F)F)nn4)cc-3n2)c1F [Compound 203, 2-(2,3-Difluoro-phenyl)-5-{6-[4-(1H-pyrazol-4-yl)-2-trifluoromethyl-phenyl]-pyridazin-3-ylmethyl}-5H-imidazo[4,5-d]pyridazine], the EC50 rises from 0.019 µM to 21 µM (1100-fold).

First: COc1ccc(-c2ccc(Cn3cc4nc(-c5cccc(F)c5F)nc-4cn3)c([N+](=O)[O-])c2)c(C(F)(F)F)c1 [Compound 201, 2-(2,3-Difluoro-phenyl)-5-(4-methoxy-3-nitro-2-trifluoromethyl-biphenyl-4-ylmethyl)-5H-imidazo[4,5-d]pyridazine]
Second: COc1ccc(-c2ccc(Cn3cc4nc(-c5ccccc5F)nc-4cn3)cn2)c(C(F)(F)F)c1 [Compound 212, 2-(2-Fluoro-phenyl)-5-[6-(4-methoxy-2-trifluoromethyl-phenyl)-pyridin-3-ylmethyl]-5H-imidazo[4,5-d]pyridazine]
The EC50 of the first is 1.6-fold lower: 0.05 µM for the first, 0.081 µM for the second.

COc1cccc(-c2ccc(Cn3cc4nc(-c5cccc(F)c5F)nc-4cn3)nn2)c1OC [Compound 202, 2-(2,3-Difluoro-phenyl)-5-[6-(2,3-dimethoxy-phenyl)-pyridazin-3-ylmethyl]-5H-imidazo[4,5-d]pyridazine] and COc1ccc(-c2ccc(Cn3cc4nc(-c5cccc(F)c5F)nc-4cn3)nn2)c(OC)c1 [Compound 207, 2-(2,3-Difluoro-phenyl)-5-[6-(2,4-dimethoxy-phenyl)-pyridazin-3-ylmethyl]-5H-imidazo[4,5-d]pyridazine] cannot be ordered by EC50: at least 50 µM for the first, at least 50 µM for the second.

Fc1cccc(-c2nc3cnn(Cc4ccc(-c5ccc(-c6cccnc6)cc5C(F)(F)F)nn4)cc-3n2)c1F [Compound 204, 2-(2,3-Difluoro-phenyl)-5-[6-(4-pyridin-3-yl-2-trifluoromethyl-phenyl)-pyridazin-3-ylmethyl]-5H-imidazo[4,5-d]pyridazine] and Fc1cccc(-c2nc3cnn(Cc4ccc(-c5ccc(-c6ccncc6)cc5C(F)(F)F)nn4)cc-3n2)c1F [Compound 210, 2-(2,3-Difluoro-phenyl)-5-[6-(4-pyridin-4-yl-2-trifluoromethyl-phenyl)-pyridazin-3-ylmethyl]-5H-imidazo[4,5-d]pyridazine] are within 1.5-fold of each other in EC50: 0.656 µM for the first, 0.735 µM for the second.

Going from Fc1cccc(-c2nc3cnn(Cc4ccc(-c5ccc(-c6ccccc6)cc5C(F)(F)F)nn4)cc-3n2)c1F [Compound 205, 2-(2,3-Difluoro-phenyl)-5-[6-(3-trifluoromethyl-biphenyl-4-yl)-pyridazin-3-ylmethyl]-5H-imidazo[4,5-d]pyridazine] to Cc1ccc(-c2ccc(Cn3cc4nc(-c5cccc(F)c5F)nc-4cn3)nn2)cc1 [Compound 211, 2-(2,3-Difluoro-phenyl)-5-(6-p-tolyl-pyridazin-3-ylmethyl)-5H-imidazo[4,5-d]pyridazine], the EC50 rises from 0.14 µM to 3.47 µM (25-fold).

CC(C)Cc1ccc(-c2ccc(Cn3cc4nc(-c5cccc(F)c5F)nc-4cn3)nn2)cc1 [Compound 208, 2-(2,3-Difluoro-phenyl)-5-[6-(4-isobutyl-phenyl)-pyridazin-3-ylmethyl]-5H-imidazo[4,5-d]pyridazine] and COCc1ccc(-c2ccc(Cn3cc4nc(-c5cccc(F)c5F)nc-4cn3)nn2)cc1 [Compound 213, 2-(2,3-Difluoro-phenyl)-5-[6-(4-methoxymethyl-phenyl)-pyridazin-3-ylmethyl]-5H-imidazo[4,5-d]pyridazine] cannot be ordered by EC50: at least 50 µM for the first, at least 50 µM for the second.

First: CC(C)(C)OCc1ccc(-c2ccc(Cn3cc4nc(-c5cccc(F)c5F)nc-4cn3)nn2)cc1 [Compound 214, 5-[6-(4-tert-Butoxymethyl-phenyl)-pyridazin-3-ylmethyl]-2-(2,3-difluoro-phenyl)-5H-imidazo[4,5-d]pyridazine]
Second: CC(C)(C)c1ccc(-c2ccc(Cn3cc4nc(-c5cccc(F)c5F)nc-4cn3)nn2)cc1 [Compound 215, 5-[6-(4-tert-Butyl-phenyl)-pyridazin-3-ylmethyl]-2-(2,3-difluoro-phenyl)-5H-imidazo[4,5-d]pyridazine]
The EC50 of the first is 4.1-fold higher: 47.4 µM for the first, 11.6 µM for the second.

Cn1ccc2cc(-c3ccc(Cn4cc5nc(-c6cccc(F)c6F)nc-5cn4)nn3)ccc21 [Compound 216, 2-(2,3-Difluoro-phenyl)-5-[6-(1-methyl-1H-indol-5-yl)-pyridazin-3-ylmethyl]-5H-imidazo[4,5-d]pyridazine] and Cc1cccc(-c2ccc(Cn3cc4nc(-c5cccc(F)c5F)nc-4cn3)nn2)c1 [Compound 221, 2-(2,3-Difluoro-phenyl)-5-(6-m-tolyl-pyridazin-3-ylmethyl)-5H-imidazo[4,5-d]pyridazine] cannot be ordered by EC50: at least 50 µM for the first, at least 50 µM for the second.

CCOC(=O)CCc1ccc(-c2ccc(Cn3cc4nc(-c5cccc(F)c5F)nc-4cn3)nn2)cc1 [Compound 217, 3-(4-{6-[2-(2,3-Difluoro-phenyl)-imidazo[4,5-d]pyridazin-5-ylmethyl]-pyridazin-3-yl}-phenyl)-propionic acid ethyl ester] and COc1cccc(-c2ccc(Cn3cc4nc(-c5cccc(F)c5F)nc-4cn3)nn2)c1 [Compound 218, 2-(2,3-Difluoro-phenyl)-5-[6-(3-methoxy-phenyl)-pyridazin-3-ylmethyl]-5H-imidazo[4,5-d]pyridazine] cannot be ordered by EC50: 52 µM for the first, at least 50 µM for the second.

Work on Fc1cccc(-c2nc3cnn(Cc4ccc(-c5ccc6c(c5)OCO6)nn4)cc-3n2)c1F [Compound 219, 5-(6-Benzo[1,3]dioxol-5-yl-pyridazin-3-ylmethyl)-2-(2,3-difluoro-phenyl)-5H-imidazo[4,5-d]pyridazine] yielded an EC50 of at least 50 µM.
